# Measured values from paper PMC12402836, “Taste Profile and Relative Bioavailability of Tovorafenib Powder for Oral Suspension and Food Effect of the Tovorafenib Tablet in Healthy Participants” (Clinical Pharmacology in Drug Development, 2025).
# Like-named read-outs stand apart in the source and are kept apart here.
# How the values were obtained:
# [1] = Relative bioavailability and food-effect pharmacokinetics (Part 2, 3-period crossover); format: in vivo, human
# Protocol: In Part 2 of the study, 12 participants were randomized to 1 of 3 sequences (T[fast]S[fast]T[fed], S[fast]T[fed]T[fast], and T[fed]T[fast]S[fast]) (Figure S1B). In each treatment period, tovorafenib was administered on Day 1 as a tablet under fasted (T[fast]), as PfOS under fasted (S[fast]), or as a tablet after a high‐fat meal (T[fed]). Tovorafenib was administered in the morning after an overnight fast of 10 hours or more. For treatment groups T[fast] and S[fast], tovorafenib was given under fasted conditions (ie, no breakfast), while for the T[fed] group, it was administered 30 minutes after the start of a high‐fat meal. A total of 240 mL of water was administered with each tovorafenib tablet. For the PfOS, immediately after administration, the dosing vessel was rinsed with water, and participants were required to consume the rinse solution and additional water up to a total volume of 240 mL (including the dosing volume and volume used to rinse the dosing vessel). If needed, additional water in 50‐mL aliquots was provided and recorded but was not classed as a protocol deviation. Participants were required to fast for 4 hours or more after single‐dose administration of the tovorafenib tablet. The composition of the high‐fat meal consisted of 800‐1000 calories, of which approximately 54% of calories were from fat. To be eligible for dosing, participants were required to consume at least 90% of the meal provided. Intake of fluids was prohibited 1 hour before dosing until 1 hour after dosing, except for fluid consumed with breakfast before dosing and water for tovorafenib tablet intake. Blood samples were collected at regular intervals (see Blood Collection and Processing for PK Analysis in the Pharmacokinetic Assessments section for more details) for PK analysis from before dosing to 120 hours after dosing. […]
# Plasma concentrations of tovorafenib were determined by a validated liquid chromatography with tandem mass spectrometry–based method with a lower limit of quantification of 0.5 ng/mL. […]
# [2] = Safety assessments (adverse events, laboratory, vital signs, ECG); format: in vivo
# Excerpt: Safety evaluations included analysis of AEs, laboratory variables (hematology, clinical chemistry, and urinalysis), vital signs, electrocardiogram, and a physical examination. AEs were coded using the Medical Dictionary for Regulatory Activities Version 24.0. […] Treatment‐emergent AEs (TEAEs) were summarized by frequency, severity, and relatedness to the study drug. TEAE frequency (the number of TEAEs and the number of participants experiencing a TEAE) was tabulated by system organ class and preferred term. In the per‐participant analyses, a participant having the same event more than once was counted only once.
# [3] = set-up: method as in PMID 37219686; conditions: cited from earlier work
# [4] = set-up: method as in PMID 38967715, PMID 39412085; conditions: cited from earlier work
# relapsed/refractory pLGG = system: relapsed/refractory pLGG; set-up: method as in PMID 39808502, PMID 37978284; conditions: cited from earlier work
# [5] = system: aldehyde oxidase and cytochrome P450 (CYP) 2C8, CYP3A, CYP2C9, CYP2C19; set-up: method as in PMID 38967715, PMID 39412085; conditions: in vitro, minor contributions from CYP3A; cited from earlier work
# [6] = system: CYP2C8, CYP2C9, CYP2C19, CYP3A, CYP1A2, CYP2B6; set-up: method as in PMID 38967715, PMID 39412085; conditions: at clinically relevant concentrations, cited from earlier work
# [7] = system: breast cancer resistance protein; set-up: method as in PMID 38967715, PMID 39412085; conditions: at clinically relevant concentrations; cited from earlier work
# [8] = 20-280 mg every 2 days and 400-800 mg every week
smiles,measurement,setting,value
"C[C@@H](NC(=O)c1ncnc(N)c1Cl)c1ncc(C(=O)Nc2cc(C(F)(F)F)c(Cl)cn2)s1 [tovorafenib, 6‐amino‐5‐chloro‐N‐[(1R)‐1‐[5‐[[[5chloro‐4‐(trifluoromethyl)‐2‐pyridinyl]amino]carbonyl]‐2‐thiazolyl]ethyl]‐4‐pyrimidinecarboxamide]",half-life,"[1]; human, plasma, oral, range over regimens, 100 and 300 mg, read-out: Mean t1/2 values from the 3 treatment regimens",62 to 89.5 h
same,AUC0‐last at 300 mg relative to 100 mg,[1]; single doses,~2.5 fold
same,Cmax at 300 mg relative to 100 mg,[1]; single doses,approximately 2.3 fold
same,Severity of all AEs,[2]; 100 mg dose regimens,mild
same,"Myalgia, events",[2]; 300 mg,10 events
same,"Nonserious musculoskeletal AEs, mild",[2]; 300 mg,5 participants
same,"Nonserious musculoskeletal AEs, moderate",[2]; 300 mg,3 participants
same,"Nonserious musculoskeletal AEs, severe",[2]; 300 mg,4 participants
same,Moderate AEs,[2]; 300 mg dose regimens,7
same,Participants with nonserious musculoskeletal AEs,"[2]; 300 mg, Period 1",12 participants
same,"Myalgia, participants reporting","[2]; 300 mg, [83.3%]",10 participants
same,TEAEs reported during Part 1,"[2]; Part 1, sip and spit of PfOS formulations, n = 12",no TEAEs
same,Serious AEs or AEs leading to study drug discontinuation,[2]; Part 2,no serious AEs or AEs leading to study drug discontinuation
same,TEAEs related to tovorafenib,"[2]; Part 2, all regimens",60
same,Total TEAEs,"[2]; Part 2, all regimens",71
same,Participants reporting TEAEs,"[2]; Part 2, all regimens, N = 12",12 participants
same,"Laboratory, vital sign, electrocardiogram, physical examination findings",[2]; either part of the study,no clinically significant abnormal
same,Dose proportionality of peak plasma concentration and exposure,[3]; [8],roughly dose‐proportional
same,half-life,[3]; [8],approximately 70 hours
same,Median tmax,[3]; after dosing,3 h
same,Mean t1/2,"[3]; patients, 600 mg, multiple administrations",approximately 70 hours
same,Tovorafenib share of total plasma radioactivity exposure,[4]; single 100-mg oral dose of [14C]-tovorafenib,78.7%
same,Dose recovered in the urine,[4]; single oral radiolabeled dose,27%
same,Dose recovered unchanged in the feces,[4]; single oral radiolabeled dose,8.6%
same,Dose recovered unchanged in the urine,[4]; single oral radiolabeled dose,0.2%
same,Total radiolabeled dose recovered in the feces,[4]; single oral radiolabeled dose,65%
same,Overall response rate,"relapsed/refractory pLGG; 76 evaluable patients, 420 mg/m^2 once weekly (600 mg maximum), independent radiology review, RAPNO low-grade glioma criteria",51%
same,Median duration of response,"relapsed/refractory pLGG; FIREFLY-1 arm 1, 420 mg/m^2 once weekly",13.8 months
same,Metabolizing enzymes,[5],primarily metabolized by aldehyde oxidase and cytochrome P450 (CYP) 2C8
same,Effect on CYP1A2 and CYP2B6,[6],induces
same,"Effect on CYP2C8, CYP2C9, CYP2C19, and CYP3A",[6]; in vitro,both inhibits and induces
same,Effect on breast cancer resistance protein,[7],inhibits
